Assay results as given in ChEMBL document CHEMBL4330144, “A mitochondria-targeted organic arsenical accelerates mitochondrial metabolic disorder and function injury” (Bioorg Med Chem, 2019).
pIC50: −log10 of the molar value. Active and inactive are the calls of the source. No cut-off for these calls is given here.

Assays:
Rattus norvegicus [1] = species on record: Rattus norvegicus; assay: Induction of mitochondrial swelling in isolated Wistar rat mitochondria at 30 uM in presence of EGTA; type: functional
Rattus norvegicus [2] = species on record: Rattus norvegicus; assay: Inhibition of mitochondrial respiration in isolated Wistar rat mitochondria assessed as decrease in succinate/ADP-stimulated respiratory control ratio up to 16 uM by Clark oxygen electrode method; type: functional
Rattus norvegicus [3] = species on record: Rattus norvegicus; assay: Induction of mitochondrial membrane permeability in isolated Wistar rat mitochondria at 50 uM for 30 mins by TEM analysis; type: functional
HL-60 = assay: Cytotoxicity against human HL60 cells after 48 hrs by MTT assay; type: functional, cell-based; settings: HL-60, 48 h
NB-4 [4] = assay: Induction of mitochondrial membrane potential loss in human NB4 cells assessed as decrease in intracellular ATP level at 0.6 to 1.2 uM after 24 hrs; type: functional, cell-based
HeLa = assay: Cytotoxicity against human HeLa cells after 24 hrs by MTT assay; type: functional, cell-based
NB-4 [5] = assay: Induction of apoptosis in human NB4 cells assessed as necrotic cells after 24 hrs by Annexin V-FITC/propidium iodide staining based flow cytometry (reference value: 0.1%); type: functional
NB-4 [6] = assay: Induction of apoptosis in human NB4 cells assessed as live cells after 24 hrs by Annexin V-FITC/propidium iodide staining based flow cytometry (reference value: 92%); type: functional
NB-4 [7] = assay: Reduction in cell viability in human NB4 cells up to 2.4 uM up to 24 hrs by MTT assay; type: functional, cell-based
NB-4 [8] = assay: Induction of apoptosis in human NB4 cells assessed as necrotic cells after 24 hrs in presence of Z-VAD-fmk by Annexin V-FITC/propidium iodide staining based flow cytometry (reference value: 0.1%); type: functional
NB-4 [9] = assay: Induction of mitochondrial membrane potential loss in human NB4 cells at 0.6 uM after 3 hrs by JC1 staining based flow cytometry (reference value: 27.7%); type: functional
NB-4 [10] = assay: Induction of apoptosis in human NB4 cells assessed as late apoptotic cells after 24 hrs in presence of Nec-1 by Annexin V-FITC/propidium iodide staining based flow cytometry (reference value: 2.9%); type: functional
Rattus norvegicus [11] = species on record: Rattus norvegicus; assay: Induction of mitochondrial membrane potential loss in isolated Wistar rat mitochondria assessed as decline phase rate constant at 25 uM using pyruvate as substrate up to 3 hrs by microcalorimetry (reference value: -24.13 to -20.47 10^-3/min); type: functional
MCF7 = assay: Cytotoxicity against human MCF7 cells after 24 hrs by MTT assay; type: functional, cell-based; settings: MCF7, 24 h
NB-4 [12] = assay: Induction of apoptosis in human NB4 cells assessed as late apoptotic cells after 24 hrs by Annexin V-FITC/propidium iodide staining based flow cytometry (reference value: 2.9%); type: functional
NB-4 [13] = assay: Induction of mitochondrial membrane potential loss in human NB4 cells at 0.3 to 2.4 uM after 24 hrs by JC-1 staining based confocal microscopic method; type: functional, cell-based
NB-4 [14] = assay: Induction of cytochrome-c release in human NB4 cells after 24 hrs by ELISA; type: functional, cell-based
Rattus norvegicus [15] = species on record: Rattus norvegicus; assay: Induction of mitochondrial membrane potential loss in isolated Wistar rat mitochondria assessed as decline phase rate constant at 100 uM using pyruvate as substrate up to 3 hrs by microcalorimetry; type: functional
NB-4 [16] = assay: Induction of mitochondrial membrane potential loss in human NB4 cells at 0.6 uM after 1 hr by JC1 staining based flow cytometry (reference value: 27.7%); type: functional
Rattus norvegicus [17] = species on record: Rattus norvegicus; assay: Inhibition of ETC2 in isolated Wistar rat mitochondria assessed as decrease in DCPIP/DB reagent reduction at 5 to 50 uM incubated for 3 to 5 mins and measured for up to 3 mins
HEK293 = assay: Cytotoxicity against HEK293 cells after 48 hrs by MTT assay; type: cell-based; settings: Homo sapiens, HEK293, 48 h
[18] = biological target: T1, Dihydrolipoyllysine-residue acetyltransferase component of pyruvate dehydrogenase complex, mitochondrial (Homo sapiens) (UniProt P10515); assay: Inhibition of PDHC-E2 activity in human NB4 cells up to 2.4 uM after 3 hrs; type: cell-based
T1 sequence (whole entry): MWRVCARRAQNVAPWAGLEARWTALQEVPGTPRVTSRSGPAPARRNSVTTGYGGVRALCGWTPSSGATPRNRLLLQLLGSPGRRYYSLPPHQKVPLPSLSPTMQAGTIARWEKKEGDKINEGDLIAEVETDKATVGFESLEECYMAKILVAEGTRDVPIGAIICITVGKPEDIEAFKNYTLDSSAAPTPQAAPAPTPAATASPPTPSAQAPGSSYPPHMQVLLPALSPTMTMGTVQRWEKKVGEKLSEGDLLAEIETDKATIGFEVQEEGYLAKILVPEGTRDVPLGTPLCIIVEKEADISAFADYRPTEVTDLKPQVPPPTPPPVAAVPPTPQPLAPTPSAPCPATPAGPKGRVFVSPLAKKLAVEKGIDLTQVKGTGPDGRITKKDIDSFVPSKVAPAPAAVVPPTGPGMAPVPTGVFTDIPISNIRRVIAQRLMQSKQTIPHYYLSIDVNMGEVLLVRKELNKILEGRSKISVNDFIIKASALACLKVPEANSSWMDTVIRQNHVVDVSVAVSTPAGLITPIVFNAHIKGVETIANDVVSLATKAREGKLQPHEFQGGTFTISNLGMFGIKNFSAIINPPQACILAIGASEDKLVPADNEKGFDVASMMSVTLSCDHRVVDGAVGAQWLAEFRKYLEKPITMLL

Rattus norvegicus [19] = species on record: Rattus norvegicus; assay: Induction of mitochondrial membrane potential loss in isolated Wistar rat mitochondria assessed as maximum power output time at 50 uM using pyruvate as substrate up to 3 hrs by microcalorimetry; type: functional
NB-4 [20] = assay: Induction of apoptosis in human NB4 cells assessed as early apoptotic cells after 24 hrs by Annexin V-FITC/propidium iodide staining based flow cytometry (reference value: 5%); type: functional
NB-4 [21] = assay: Induction of ROS generation in human NB4 cells up to 1.2 uM up to 24 hrs by DHE staining based flow cytometry; type: functional, cell-based
Rattus norvegicus [22] = species on record: Rattus norvegicus; assay: Inhibition of ETC3 in isolated Wistar rat mitochondria assessed as decrease in oxidized cyochrome-c reduction at 50 uM incubated for 3 to 5 mins and measured for up to 3 mins
Rattus norvegicus [23] = species on record: Rattus norvegicus; assay: Induction of mitochondrial membrane potential loss in isolated Wistar rat mitochondria assessed as total heat output at 100 uM using pyruvate as substrate up to 3 hrs by microcalorimetry; type: functional
NB-4 [24] = assay: Induction of apoptosis in human NB4 cells assessed as late apoptotic cells after 24 hrs in presence of Z-VAD-fmk by Annexin V-FITC/propidium iodide staining based flow cytometry (reference value: 2.9%); type: functional
Rattus norvegicus [25] = species on record: Rattus norvegicus; assay: Induction of inner mitochondrial membrane permeabilization in isolated Wistar rat mitochondria assessed as K+ permeabilization at 5 to 75 uM measured for 10 to 30 mins; type: functional
Rattus norvegicus [26] = species on record: Rattus norvegicus; assay: Induction of mitochondrial membrane potential loss in isolated Wistar rat mitochondria assessed as stationary increase phase rate constant at 50 uM using pyruvate as substrate up to 3 hrs by microcalorimetry; type: functional
Rattus norvegicus [27] = species on record: Rattus norvegicus; assay: Induction of mitochondrial membrane potential loss in isolated Wistar rat mitochondria assessed as stationary increase phase rate constant at 100 uM using pyruvate as substrate up to 3 hrs by microcalorimetry; type: functional
NB-4 [28] = assay: Induction of apoptosis in human NB4 cells assessed as early apoptotic cells after 24 hrs in presence of Nec-1 by Annexin V-FITC/propidium iodide staining based flow cytometry (reference value: 5%); type: functional

O=C(CC[P+](c1ccccc1)(c1ccccc1)c1ccccc1)Nc1ccc([As]2SCCCS2)cc1.[Cl-]
Activity (Rattus norvegicus [1]): inactive
inhibition (Rattus norvegicus [2]): Active
Activity (Rattus norvegicus [3]): Active
pIC50 (HL-60): 5.49
Activity (NB-4 [4]): Active
pIC50 (HeLa): 5.04
Activity (NB-4 [5]): 1.4%
Activity (NB-4 [6]): 69.3%
Activity (NB-4 [7]): Active
Activity (NB-4 [8]): 0.2%
Activity (NB-4 [9]): 73.9%
Activity (NB-4 [10]): 16.2%
K (Rattus norvegicus [11]): -14.1 ×10⁻³ /min
pIC50 (MCF7): 5.35
Activity (NB-4 [12]): 16.2%
Activity (NB-4 [13]): Active
Activity (NB-4 [14]): Dose-dependent effect
K (Rattus norvegicus [15]): -9.13 ×10⁻³ /min
Activity (NB-4 [16]): 40.9%
inhibition (Rattus norvegicus [17]): inactive
pIC50 (HEK293): 5.68
inhibition [18]: Active
TIME (Rattus norvegicus [19]): 47.6 h
Activity (NB-4 [20]): 13.1%
Activity (NB-4 [21]): Active
inhibition (Rattus norvegicus [22]): Active
Activity (Rattus norvegicus [23]): 11.2 J
Activity (NB-4 [24]): 5.2%
Activity (Rattus norvegicus [25]): Active
K (Rattus norvegicus [26]): 0.46 ×10⁻³ /min
K (Rattus norvegicus [27]): 0.41 ×10⁻³ /min
Activity (NB-4 [28]): 11.6%
